Laboratory results: patent US20210221785A1, “AMINO-PYRIMIDONYL DERIVATIVES, A PROCESS FOR THEIR PREPARATION AND PHARMACEUTICAL COMPOSITIONS CONTAINING THEM” (LES LABORATOIRES SERVIER, priority 2018, published 2021)

biological target: T1, His-His-USP7 (aa208-560, |C315A|) (Homo sapiens, UniProt Q93009, C315A); assay: Evaluation of the inhibition of USP7 by the Fluorescence Intensity (FLINT) readings; type: biochemical; settings: 0.25 nM His-His-USP7, compound incubated 60 minutes at 30° C., 500 nM Ubiquitin-Rhodamine-110 substrate; 50% reduction in kinetic rate
T1 construct: His-His-USP7 (aa208-560, |C315A|); His-His (N)
Description: USP7 activity was measured using Rhodamine-110 c-terminal labelled Ubiquitin as a substrate (UbiQ Bio). Incubation with USP7 results in the release of Rhodamine-110 leading to an increase in fluorescence which can be used in the continuous measurement of USP7 activity.
The USP7 reactions were performed in a 50 μL volume, in 384 well black solid low binding plates (Corning #3575). The reaction buffer consisted of 100 mM Bicine pH 8.0, 0.01% TritonX100, 1 mM TCEP, and 10% DMSO.
0.25 nM His-His-USP7 (aa208-560, |C315A|) was incubated with compound (final concentration 10% DMSO) for 60 minutes at 30° C. The reaction was then initiated by the addition of 500 nM Ubiquitin-Rhodamme-110 substrate and the plate read every 3 minutes for 21 minutes to measure the release of Rhodamine-110. Fluorescence Intensity (FLINT) readings were measured using a […] plate reader (Ex.485 nm, Em.535 nm).
The inhibition of increasing doses of compound was expressed as a percentage reduction in kinetic rate compared to the kinetic rates established between ‘DMSO only’ and ‘total inhibition’ controls (no USP7). The inhibitory concentrations that gave a 50% reduction in kinetic rate (IC50) were determined, from 11-point dose response cures, in XL-Fit using a 4-Parameter Logistic Model 205 (Sigmoidal Dose-Response Model).

T1 sequence (Q93009 208-560 C315A): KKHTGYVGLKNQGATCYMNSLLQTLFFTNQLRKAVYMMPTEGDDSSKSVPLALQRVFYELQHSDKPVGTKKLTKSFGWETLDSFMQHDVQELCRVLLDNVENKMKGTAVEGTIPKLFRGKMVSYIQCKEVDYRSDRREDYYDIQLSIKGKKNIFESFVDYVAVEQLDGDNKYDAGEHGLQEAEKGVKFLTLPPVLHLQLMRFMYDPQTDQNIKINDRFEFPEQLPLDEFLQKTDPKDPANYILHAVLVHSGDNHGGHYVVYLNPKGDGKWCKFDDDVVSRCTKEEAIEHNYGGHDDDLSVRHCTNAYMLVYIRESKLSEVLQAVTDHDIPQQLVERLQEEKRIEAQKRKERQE

| SMILES | IC50 |
| --- | --- |
| Nc1c(Oc2ccc(F)cc2)ncn(CC2(O)CCN(C(=O)[C@@H]3CC[C@@](F)(C#Cc4ccccc4)C[C@H]3c3ccccc3)CC2)c1=O [Example 136, 5-amino-3-({1-[(1R,2R,4S)-4-fluoro-2-phenyl-4-(2-phenylethynyl)cyclobexanecarbonyl]-4-hydroxypiperidin-4-yl}methyl)-6-(4-fluorophenoxy)-3,4-dihydropyrimidin-4-one] | 0.197 µM |
| Nc1c(Oc2ccc(F)cc2)ncn(CC2(O)CCN(C(=O)[C@@H]3CC[C@](O)(Cc4cnccn4)C[C@H]3c3ccccc3)CC2)c1=O (relative stereo) [Example 98, rel-5-amino-6-(4-fluorophenoxy)-3-[(4-hydroxy-1-{([(1R,2R,4R)-4-hydroxy-2-phenyl-4-(pyrazin-2-ylmethyl)cyclohexyl]carbonyl}piperidin-4-yl)methyl]pyrimidin-4-one] | 0.223 µM |
| Nc1c(Oc2ccc(F)cc2)ncn(CC2(O)CCN(C(=O)[C@@H]3CCC(F)(F)C[C@H]3c3ccco3)CC2)c1=O (relative stereo) [Example 88, 5-amino-3-({1-[(1,2-trans)-4,4-difluoro-2-(furan-2-yl)cyclohexane-1-carbonyl]-4-hydroxypiperidin-4-yl}methyl)-6-(4-fluorophenoxy)pyrimidin-4(3H)-one] | 0.111 µM |
| Nc1c(Oc2ccc(F)cc2)ncn(CC2(O)CCN(C(=O)[C@@H]3CC[C@@](F)(C#Cc4cc(F)ccn4)C[C@H]3c3ccccc3)CC2)c1=O [Example 158, 5-amino-3-({1-[(1R,2R,4S)-4-fluoro-4-[2-(4-fluoropyridin-2-yl)ethynyl]-2-phenylcyclohexanecarbonyl]-4-hydroxypiperidin-4-yl}methyl)-6-(4-fluorophenoxy)-3,4-dihydropyrimidin-4-one] | 0.0677 µM |
| O=C([C@@H]1CCC(F)(F)C[C@H]1c1ccccc1)N1CCC(O)(Cn2cnc(Oc3ccc(F)cc3)c(NCc3ccccc3)c2=O)CC1 [Example 57, 5-(benzylamino)-3-({1-[(1R,2R)-4,4-difluoro-2-phenylcyclohexane-1-carbonyl]-4-hydroxypiperidin-4-yl}methyl)-6-(4-fluorophenoxy)pyrimidin-4(3H)-one] | 0.611 µM |
| Nc1c(Oc2ccc(F)cc2)ncn(CC2(O)CCN(C(=O)[C@@H]3CC[C@](F)(C#Cc4ccccc4)C[C@H]3c3ccccc3)CC2)c1=O [Example 135, 5-amino-3-({1-[(1R,2R,4R)-4-fluoro-2-phenyl-4-(2-phenylethynyl)cyclohexanecarbonyl]-4-hydroxypiperidin-4-yl}methyl)-6-(4-fluorophenoxy)-3,4-dihydropyrimidin-4-one] | 0.0364 µM |
| Nc1c(Oc2ccc(CN(C=O)CC(F)(F)F)cc2)ncn(CC2(O)CCN(C(=O)[C@@H]3CCC(F)(F)C[C@H]3c3ccccc3)CC2)c1=O [Example 74, N-[(4-{[5-amino-1-({1-[(1R,2R)-4,4-difluoro-2-phenylcyclohexane-1-carbonyl]-4-hydroxypiperidin-4-yl}methyl)-6-oxo-1,6-dihydropyrimidin-4-yl]oxy}phenyl)methyl]-N-(2,2,2-trifluoroethyl)formamide] | 0.227 µM |
| Nc1c(Oc2ccc(F)cc2)ncn(CC2(O)CCN(C(=O)[C@@H]3CC[C@@](O)(c4ccccc4)C[C@H]3c3ccccc3)CC2)c1=O (relative stereo) [Example 103, rel-5-amino-6-(4-fluorophenoxy)-3-[(4-hydroxy-1-{[(1R,2R,4S)-4-hydroxy-2,4-diphenylcyclohexyl]carbonyl}piperidin-4-yl)methyl]pyrimidin-4-one] | 0.312 µM |
| Nc1c(Oc2cccc(C3CCCCN3)c2)ncn(CC2(O)CCN(C(=O)[C@@H]3CCC(F)(F)C[C@H]3c3ccccc3)CC2)c1=O (stereo partly drawn) [Example 47, 5-amino-3-({1-[(1R,2R)-4,4-difluoro-2-phenylcyclohexane-1-carbonyl]-4-hydroxypiperidin-4-yl}methyl)-6-[3-(piperidin-2-yl)phenoxy]pyrimidin-4(3H)-one] | 0.00881 µM |

More lines, now with the values ahead:

| IC50 | SMILES |
| --- | --- |
| 0.119 µM | NCc1ccc(Oc2ncn(CC3(O)CCN(C(=O)[C@@H]4CCC(F)(F)C[C@H]4c4ccccc4)CC3)c(=O)c2N)c(Cl)c1 [Example 69, 5-amino-6-[4-(aminomethyl)-2-chlorophenoxyl]-3-({1-[(1R,2R)-4,4-difluoro-2-phenylcyclohexane-1-carbonyl]-4-hydroxypiperidin04-yl}methyl)pyrimidin-4(3H)-one] |
| 0.716 µM | Nc1c(Oc2cccc(S(F)(F)(F)(F)F)c2)ncn(CC2(O)CCN(C(=O)[C@@H]3CCC(F)(F)C[C@H]3c3ccccc3)CC2)c1=O [Example 21, 5-amino-3-({1-[(1R,2R)-4,4-difluoro-2-phenylcyclohexane-1-carbonyl]-4-hydroxypiperidin-4-yl}methyl)-6-[3-(pentafluoro-λ^6-sulfanyl)phenoxy]pyrimidin-4(3H)-one] |
| 0.134 µM | Nc1c(Oc2ccc(CNc3ccccc3)cc2)ncn(CC2(O)CCN(C(=O)[C@@H]3CCC(F)(F)C[C@H]3c3ccccc3)CC2)c1=O [Example 70, 5-amino-6-[4-(anilinomethyl)phenoxy]-3-({1-[(1R,2R)-4,4-difluoro-2-phenylcyclohexane-1-carbonyl]-4-hydroxypiperidin-4-yl}methyl)pyrimidin-4(3H)-one] |
| 0.304 µM | Nc1c(Oc2ccccc2F)ncn(CC2(O)CCN(C(=O)[C@@H]3CCC(F)(F)C[C@H]3c3ccccc3)CC2)c1=O [Example 2, 5-amino-3-({1-[(1R,2R)-4,4-difluoro-2-phenylcyclohexane-1-carbonyl]-4-hydroxypiperidin-4-yl}methyl)-6-(2-fluorophenoxy)pyrimidin-4(3H)-one] |
| 0.0065 µM | CNCc1ccc(Oc2ncn(CC3(O)CCN(C(=O)[C@@H]4CCC(F)(F)C[C@H]4c4ccccc4)CC3)c(=O)c2N)cc1 [Example 60, 5-amino-3-({1-((1R,2R)-4,4-difluoro-2-phenylcyclohexane-1-carbony]-4-hydroxypiperidin-4-yl}methyl)-6-{4-[(methylamino)methyl]phenoxy}pyrimidin-4(3H)-one] |
| 0.138 µM | CC(C)(O)c1cccc(Oc2ncn(CC3(O)CCN(C(=O)[C@@H]4CCC(F)(F)C[C@H]4c4ccccc4)CC3)c(=O)c2N)c1 [Example 49, 5-amino-3-({1-[(1R,2R)-4,4-difluoro-2-phenylcyclohexane-1-carbonyl]-4-hydroxypiperidin-4-yl}methyl)-6-[3-(2-hydroxypropan-2yl)phenoxy]pyrimidin-4(3H)-one] |
| 0.375 µM | NC(=O)c1ccc(Oc2ncn(CC3(O)CCN(C(=O)[C@@H]4CCC(F)(F)C[C@H]4c4ccccc4)CC3)c(=O)c2N)cc1Cl [Example 80, 4-{[5-amino-1-({1-[(1R,2R)-4,4-difluoro-2-phenylcyclohexane-1-carbonyl]-4-hydroxypiperidin-4-yl}methyl)-6-oxo-1,6-dihydropyrimidin-4-yl]oxy}-2-chlorobentamide] |
| 0.203 µM | N#Cc1cccc(Oc2ncn(CC3(O)CCN(C(=O)[C@@H]4CCC(F)(F)C[C@H]4c4ccccc4)CC3)c(=O)c2N)c1 [Example 25, 3-{[5-amino-1-({1-[(1R,2R)-4,4-difluoro-2-phenylcyclohexane-1-carbonyl]-4-hydroxypiperidin-4-yl}methyl)-6-oxo-1,6-dihydropyrimidin-4-yl]oxy}benzonitrile] |
